Entries after “also recorded” stand apart in the source; their conditions may differ.

Series [1] concerns human colonic cancer cell line HT-29. The experiment in a line: Cell restitution (migration) assay in wounded HT-29 monolayers. In kind it is cell-based. The conditions noted are these: 10 ug/ml, 8 hours after wounding. The method, then:
Accordingly, the human colonic cancer cell line HT-29 was grown to confluence in six well plates in a solution of DMEM-containing glutamine and 10% fetal calf serum. The monolayers of the cells were then wounded by scraping a disposable pipette tip across the dishes, washed with fresh serum-free medium, and then cultured in a serum-free medium in the presence of 1 mg/ml, 2 mg/ml, and 5 mg/ml colostrum solutions. The rate of movement of the anterior edges of the wounded monolayer cells was then determined by taking serial photomicrographs at various times after wounding (i.e., 0, 4, 8, 12, and 24) hours, using an inverted Nikon TS100 microscope and a Nikon Coolpix 800 digital camera with 100-fold magnification. Identical regions were examined at each time point by premarking the base of the plates to facilitate alignment. […] Each wound was examined in at least three different regions, and expressed as mean and SEM of three separate experiments.
The next study analyzed the potential added benefit of using colostrum rather than milk based product. […] The distance migrated by the leading edge of the cells 8 hours after wounding was then assessed. […]
The next study analysed the potential added benefit of using licorice as a stimulant of restitution. […] The distance migrated by the leading edge of the cells 8 hours after wounding was then assessed. […]

Series [2] deals with recurrent herpes simplex infection (cold sores). The conditions noted are these: oral 600-1000 mg per day in two doses; increasing from 46 days; cited from earlier work.
The test system of the next series is Caco2-BBe cells. The following applies: relatively small amount, 1 mg protein/ml; cited from earlier work.
Series [3] has as its system indomethacin-induced rat gastric damaging model. The experiment in a line: Indomethacin-induced rat gastric damaging model. In kind it is in vivo. The following applies: 1% via gavage before indomethacin.

Turning to “epidermal growth factor [EGF, peptide growth factor used as positive control]”, the “amount of migration of leading edge versus DMEM alone” value in series [1] is on record as “two-fold increase; also recorded: increased the amount of cell movement”.

As to `Nc1nc2c(ncn2COCCO)c(=O)[nH]1` [acyclovir], the “mean time to recurrence of cold sores” value in series [2] is recorded as 118 days.

`O=c1c(-c2ccc(O)cc2)coc2cc(O)cc(O)c12` [genistein]: the “growth of Caco2-BBe cells” value with Caco2-BBe cells was “increase some parameters of growth”.

Regarding `O=C([O-])O.[Na+]` [sodium bicarbonate], the “reduction of degree of gastric injury compared to saline control” value in series [3] is recorded as “about 75%”.

The values are drawn from patent US20060198900A1, “Bioactive Agent Compositions for Repair of Cell Injuries” (Nutritional Bioscience Limited, priority 2004, published 2006).
